Laboratory results from patent US20070089847A1, “Anti-microbial paper products having a substituted 1,2-dihydroquinoline” (Novus International, Inc., priority 2005, published 2007).
Counter-ions that a name gives are not always drawn.

system: Aspergillus niger ATCC 9642 and Aspergillus flavus ATCC 9643; assay: In vitro disk assay of antifungal properties, agar plates containing test agent (Example 3); format: cell-based; details: 48 hours at 25° C.
Description: In this assay, paper disks were soaked in a fungal solution and placed on the surface of agar plates containing different concentration of the test agent. The radius of fungal growth radiating from each disk was considered indicative of the degree of inhibition by the agent relative to a control.
The test agents were diluted in DMSO or water and tested at several different concentrations. The test agents were added to the agar solution after sterilization, but prior to solidification. […] The plates were incubated for 48 hours at 25° C. The zones of fungal growth (or no growth) were analyzed and the minimum total inhibitory concentration (%) was estimated for each agent.

Compound | Minimum Total Inhibitory Concentration (%)
CC(=O)C1C(=O)C=C(C)OC1=O (centres unmarked) [Dehydroacetic Acid] | 0.01%
O=CC=Cc1ccccc1 [Cinnamaldehyde] | <0.005%
O=C([O-])[C@H](O)[C@@H](O)[C@H](O)[C@H](O)CO.[Na+] [Sodium Gluconate] | >0.5%
CC(=O)C(C)O (centres unmarked) [3-Hydroxy-2-Butanone] | >0.5%
C=CCc1ccc(O)c(OC)c1 [Eugenol] | 0.05%
CC(C)=CCCC(C)=CC=O [Citral] | 0.1%
O=C1CCO1 [Beta-Propiolactone] | 0.1%
O=C(O)[C@H](O)[C@@H](O)[C@H](O)[C@H](O)CO [Gluconic Acid] | >0.5%
O=P([O-])(O)O.[Na+] [Sodium bi-Phosphate] | >0.5%
N[C@@H](Cc1c[nH]c2ccccc12)C(=O)O [Tryptophan] | >0.5%
O=C(O)/C=C/C(=O)O [Fumaric Acid] | >0.5%
O=C(O)/C=C\C(=O)O [Maleic Acid] | 0.5%
CC(=O)[O-].[Na+] [Sodium Acetate] | >0.5%
O=P(O)(O)O [Phosphoric Acid] | 0.5%
Stearyl Citrate | >0.5%
O=S([O-])O.[Na+] [Sodium Bisulfite] | 0.2%
COc1ccc(O)c(C(C)(C)C)c1 [BHA (Butylated HydroxyAnisole), Butylated HydroxyAnisole] | 0.025%
O=C(O)c1cc(O)c(O)c(O)c1 [Gallic Acid] | >0.5%
CCC(=O)O [Proprionic Acid] | 0.2%
CCC(=O)[O-].[Na+] [Sodium Proprionate] | >0.5%
CCCC(=O)O [Butyric Acid] | 0.2%
O=C1O[C@H]([C@@H](O)CO)C(O)=C1O [Ascorbic Acid] | >0.5%
N[C@@H](CS)C(=O)O [Cysteine] | >0.5%
CC(=O)[O-].[K+] [Potassium Acetate] | >0.5%
OO [Hydrogen Peroxide] | 0.1%
O=Cc1ccccc1 [Benzaldehyde] | 0.5%
O=C([O-])c1ccccc1.[Na+] [Sodium Benzoate] | >0.5%

Compound | Minimum Total Inhibitory Concentration (%)
CCCCCCCCCC=O [Decanal] | >0.5%
CC(=O)O [Acetic Acid] | 0.2%
CC(=O)Oc1c(C)c(C)c2c(c1C)CCC(C)(CCC[C@H](C)CCC[C@H](C)CCCC(C)C)O2 (stereo partly drawn) [Alpha Tocopherol Acetate] | >0.5%
O=S([O-])S(=O)(=O)[O-].[Na+].[Na+] [Sodium Metabisulfite] | 0.1%
CCCCCCCCCCCCCCCC[n+]1ccccc1.[Cl-] [Hexadecylpyridinium Cl] | 0.2%
NCC(=O)O [Glycine] | >0.5%
CC(=O)[O-].CC(=O)[O-].[Ca+2] [Calcium Acetate] | >0.5%
C=C(C)C1CC=C(C)C(=O)C1 (centres unmarked) [Carvone] | 0.1%
O=C([O-])c1ccccc1.[K+] [Potassium Benzoate] | >0.5%
CC(=O)C(C)=O [Diacetyl] | 0.1%
Cc1cc(O)cc2c1O[C@](C)(CCC[C@H](C)CCC[C@H](C)CCCC(C)C)CC2 [Delta Tocopherol] | >0.5%
O=Cc1ccc2c(c1)OCO2 [Piperonal] | 0.1%
CC(O)C(=O)O (centres unmarked) [Lactic Acid] | >0.5%
O=S(=O)([O-])[O-].[Cu+2] [Copper Sulfate] | 0.05%
O=C(O)CCCCC(=O)O [Adipic Acid] | >0.5%
CCCCCCCCOC(=O)c1cc(O)c(O)c(O)c1 [Octyl Gallate] | >0.5%
CSCC[C@H](N)C(=O)O [Methionine] | >0.5%
O=C(O)C(O)C(O)C(=O)O (centres unmarked) [Tartaric Acid] | >0.5%
CC(=O)O.CC(=O)[O-].[Na+] [Sodium Diacetate] | 0.5%
CC=O [Acetaldehyde] | >0.2%
CCO [Ethanol] | >0.5%
O=S([O-])[O-].[Na+].[Na+] [Sodium Sulfite] | >0.5%
Cl [HCl] | 0.5%
CC(O)C(=O)[O-].[Na+] (centres unmarked) [Sodium Lactate] | >0.5%
O=C(O)CCCCC1CCSS1 (stereo not drawn) [Alpha Lipoic Acid] | 0.1%
O=P([O-])([O-])OP(=O)([O-])[O-].[Na+].[Na+].[Na+].[Na+] [Sodium Pyrophosphate] | >0.5%
OB(O)O [Boric Acid] | 0.5%

Compound | Minimum Total Inhibitory Concentration (%)
C/C=C/C=C/C(=O)[O-].[K+] [Potassium Sorbate] | >0.5%
CCCCC(=O)O [Valeric Acid] | 0.1%
O=C(O)CCO [3-Hydroxypropionic Acid] | >0.5%
O=S([O-])([O-])=S.[Na+].[Na+] [Sodium Thiosulfate] | >0.5%
CCCOC(=O)c1cc(O)c(O)c(O)c1 [Propyl Gallate] | >0.5%
CCCOC(=O)c1ccc(O)cc1 [Propyl Paraben] | 0.015%
O=C(O)CO [Glycolic Acid] | >0.5%
O=C([O-])CC(O)(CC(=O)[O-])C(=O)[O-].[Na+].[Na+].[Na+] [Sodium Citrate] | >0.5%
CCC(=O)[O-].CCC(=O)[O-].[Ca+2] [Calcium Propionate] | >0.5%
O=P1([O-])OP(=O)([O-])OP(=O)([O-])OP(=O)([O-])OP(=O)([O-])OP(=O)([O-])O1.[Na+].[Na+].[Na+].[Na+].[Na+].[Na+] [Sodium Hexametaphosphate] | >0.5%
COc1cc(C=O)ccc1O [Vanillin] | 0.1%
NCCCC[C@H](N)C(=O)O [Lysine] | >0.5%
CCCCCCCCCCCCOC(=O)c1cc(O)c(O)c(O)c1 [Dodecyl Gallate] | >0.5%
O=C(O)c1ccccc1 [Benzoic Acid] | 0.1%
O=C(O)CC(=O)O [Malonic Acid] | >0.5%
CSCCC(O)C(=O)O (centres unmarked) [2-hydroxy-4(methylthio)butanoic acid] | >0.5%
CCCCCCCCCCCCOC(=O)CCSCCC(=O)OCCCCCCCCCCCC [Dilauryl Thiodipropionate] | >0.5%
O=C(O)CN(CCN(CC(=O)O)CC(=O)O)CC(=O)O [EDTA] | 0.02%
COC(=O)c1ccc(O)cc1 [Methyl Paraben] | 0.5%
Cc1c(C)c2c(c(C)c1O)CC[C@@](C)(CCC[C@H](C)CCC[C@H](C)CCCC(C)C)O2 [Alpha Tocopherol] | >0.5%
C=C(C)[C@H]1CC=C(C)CC1 [Limonene] | >0.5%
CCCCCCCCCCCCCCCC(=O)OC[C@H](O)[C@H]1OC(=O)C(O)=C1O [Ascorbyl Palmitate] | >0.5%
Cc1cc(C(C)(C)C)c(O)c(C(C)(C)C)c1 [BHT (Butylated HydroxyToluene), Butylated HydroxyToluene] | >0.5%
CC(C)(C)c1cc(O)ccc1O [TBHQ (Tert-ButylHydroQuinone), Tert-ButylHydroQuinone] | 0.1%
O=C(O)CC(O)(CC(=O)O)C(=O)O [Citric Acid] | >0.5%
O=S(=O)(O)O [Sulfuric Acid] | 0.1%
